Measurements from patent US8871900B2, “Fibroblast growth factor (FGF) analogs and uses thereof” (University of Rochester, priority 2008, dated 2014).
Peptide text beside a SMILES is read from it.

Tests used:
[1] = tested on: FGFR on AsPC-1 pancreatic cancer epithelial cells; test: Cell surface binding of biotin-FGF-P, imaging flow cytometry (Amnis Imagestream)
Experimental: (§1) Three preliminary experiments were carried out using FGF-P in vitro to confirm its activity. First, the biotin conjugated FGF-P was used as a tool to examine for cell surface binding. AsPC-1 pancreatic cancer epithelial cells are known to have high levels of FGFR and were used for this study. ASPC1 cells were incubated with 1 μg/ml of biotin-FGF-P and then labeled with streptavidin-FITC. The cells were then analyzed using an imaging flow cytometer (Amnis Imagestream). This device can image each cell as it passes through the laser, it can then sort cells according to both staining and morphological characteristics.
These clusters can be counted thus allowing for measurement of relative binding coefficients. To test the feasibility of binding coefficient measurement, competition experiments were performed. Free FGF-P (30 ug/ml) was added to cells for 20 min and then the biotin-FGF-P (1 μg/mL) was added. One hour later, the streptavidin-FITC was added and analyzed by flow cytometry. […] In a third test, a bioassay was performed. […]
Three preliminary experiments were carried out using FGF-P in vitro to confirm its activity. […] The cells were then analyzed using an imaging flow cytometer (Amnis Imagestream). […] These clusters were counted, allowing for measurement of relative binding coefficients. […] One hour later, streptavidin-FITC was added and analyzed by flow cytometry. […]

[2] = tested on: endothelial cells (adult bovine aorta endothelium); test: Growth bioassay, endothelial cells; type: cell-based; conditions: FGF-P added to culture media
Experimental: These clusters can be counted thus allowing for measurement of relative binding coefficients. To test the feasibility of binding coefficient measurement, competition experiments were performed. Free FGF-P (30 ug/ml) was added to cells for 20 min and then the biotin-FGF-P (1 μg/mL) was added. One hour later, the streptavidin-FITC was added and analyzed by flow cytometry. […] In a third test, a bioassay was performed. FGF-P was added to culture media of two types of cells: endothelial cells (adult bovine aorta endothelium) and epithelial cells (SW480, a cell line from colon).
as §1, with “examine” for “examine for”, “ASPC-1” for “ASPC1”, “laser, and” for “laser,”, “characteristics. […] These clusters were counted, allowing for measurement of relative binding coefficients. […] One hour later, streptavidin-FITC was added and analyzed by flow cytometry. […]” for “characteristics.”

[3] = tested on: BM cells; test: BM colony formation in MethoCult 3 D culture; type: cell-based, mouse (Balb/c)
Text: Survival of ARS depends on rapid reconstitution of hematopoiesis after IR-induced myelosuppression. […] However, the timing and mechanism of effect on BM stem cells is unknown. Also unclear are the number of FGFRs on hematopoietic stem cells (HSCs) and their role in reconstitution after IR. […] To characterize the effects of FGF-P on BM, the study approach was to obtain fresh BM (including both HSCs and MSCs) from Balb/c mice, and culture it under varying conditions (3 D culture or 2 D round-bottom well) in triplicate for 1-3 weeks. The BM cells were stimulated with FGF-P at different doses (as test) or with EPO, TPO, GM-CSF or native FGF2 (as a positive control). The cultures were examined using several methods including colony count, photography, CyQUANT® assay and ^3H-TdR incorporation.

[4] = Tail vein bleeding time after 4 Gy TBI; type: in vivo, mouse; conditions: 10 days after 4 Gy TBI; FGF-P 15 mg/kg daily for 3 days then every other day for 3 times
Text: The bleeding is stopped by coagulant cascade, mainly the platelet aggregation, the vessel contraction and thrombosis which are trigged by the released platelet granules (Francis 2007, Khorana 2005). IR blocks the megakaryocytopoiesis and reduces the thrombocytopoiesis (an imbalance between the synthesis and consuming of coagulant proteins), which leads to a prolonged bleeding time. To determine if FGF-P has any effect on the bleeding time, the a single tail vein at the same anatomy position was cut in same depth and merged into 37° C. warm water, the time between bleeding and stopping was recorded. The test was performed on 10 days after 4 Gy TBI.

**Q.** Which cell surface binding ([1]; AsPC-1 cells, 1 μg/ml biotin-FGF-P, streptavidin-FITC) does the source give for `CC(C)C[C@H](NC(=O)[C@H](C)NC(=O)[C@@H](NC(=O)[C@H](Cc1ccc(O)cc1)NC(=O)[C@H](Cc1c[nH]c2ccccc12)NC(=O)[C@H](CO)NC(=O)[C@H](CO)NC(=O)[C@H](Cc1ccc(O)cc1)NC(=O)[C@H](CCCCN)NC(=O)[C@H](CCCNC(=N)N)NC(=O)[C@H](CO)NC(=O)[C@H](CCCNC(=N)N)NC(=O)[C@H](Cc1ccc(O)cc1)NC(=O)[C@@H](N)CS)C(C)C)C(=O)N[C@@H](CCCCN)C(=O)N[C@@H](CCCNC(=N)N)C(=O)N[C@@H](CS)C(=O)O` [FGF-P, CYRSRKYSSWYVALKRC] (H-CYRSRKYSSWYVALKRC-OH; N-terminus and C-terminus assumed) here?
**A.** bound to the cell surface and causes the aggregation of FGFR

**Q.** And the “competition with biotin-FGF-P for cell surface binding” value ([1]; free FGF-P 30 ug/ml for 20 min, then biotin-FGF-P 1 μg/mL)?
**A.** competed with biotin-FGF-P for cell surface binding

**Q.** What about the growth of endothelium [2] of the same compound?
**A.** stimulated the growth of both endothelium and epithelium

**Q.** And the “colony formation of BM cells” value [3]?
**A.** enhanced colony formation of BM cells in a dose dependent manner

**Q.** And the bleeding time [4]?
**A.** shorter bleeding time
